Results as given in patent US20240082192A1, “TOPICAL F[…] PREGABALIN” (EGIS GYÓGYSZERGYÁR ZRT., priority 2021, published 2024).

How the values were obtained:
Wistar rats = assay: Chronic constriction injury (CCI) rat model of neuropathy, paw withdrawal threshold with electronic von Frey device; format: in vivo; conditions: 16.66 mg/kg
Text: Furthermore, based on the article Bennett G J, at al (Pain., A peripheral mononeuropathy in rat that produces disorders of pain sensation like those seen in man. 1988 April; 33(1):87-107) we have developed a method for the examination of the compositions of the present invention. Thus, we have examined the compositions according to the present invention also with a different model for measuring the alleviation of the peripheral neuropathic pain also. Namely, we have carried out examinations on rats using Chronic constriction injury (CCI) model. Three weeks following nerve injury rats were assessed for hind paw mechanical withdrawal thresholds. The paw withdrawal threshold (PWT) was determined with an Electronic von Frey device according to the modified up-down method of Dixon (Efficient analysis of experimental observations., Annu Rev Pharmacol Toxicol. 1980; 20:441-62). […] The method and results are shown in example 3 and on FIG. 9.
Thus, the compositions of the present invention are effective in the treatment of neuropathic pain. […]
Briefly, under isoflurane anesthesia small blunt dissection was made into the skin of rat right thigh then three loosely constrictive ligatures were placed around common sciatic nerve (chronic constriction injury CCI). Three weeks following nerve injury rats were assessed for hind paw mechanical withdrawal thresholds. […]

Mouse = conditions: topical 2.5% aqueous solution without other ingredients; cited from earlier work
human patient = conditions: same aqueous solution; cited from earlier work
[1] = compositions containing 1 and 3% of pregabalin; cited from earlier work
[2] = Pharmacokinetic studies, blood level of pregabalin after oral or topical administration

Compound: CC(C)C[C@H](CN)CC(=O)O [pregabalin]
- reduction of hypersensitivity after oral administration (Wistar rats): not able to reduce hypersensitivity
- alleviating effect 6 hours after administration (Mouse): the effect essentially disappeared
- time of maximum alleviating effect (Mouse): 1 h
- duration of reduction of neuropathic pain (human patient): 6 h
- time after which the pain alleviation effect decreased [1]: 1.5 to 2 h
- amount entering the bloodstream during topical treatment [2]: very small amounts
